The text below walks through data of a melting point compilation (Tetko et al.; mined from patent text by program, amines drawn as free bases though some values may be those of a salt).

For orientation: melting point means the temperature of the solid-liquid transition. In turn, `CCCCCCCCCCCCc1cc(CBr)on1` showed a melting point of 31.5 to 35 °C.

Turning to `CC(O)Cc1cccc(Nc2nccc(-c3sc(N)nc3-c3ccccc3)n2)c1` (centres undefined), the melting point was 219 to 220 °C.

For the compound `CC(C)=CCSC1=C(O)CC(C)(C)CC1=O`, the melting point fell in the range of 50.5 to 52 °C.

As for `COc1ccccc1N1CCN([C@H]2CC[C@H](c3ccc(-c4ccccc4)cc3)CC2)CC1`, the melting point was 220 to 225 °C.

In turn, `Sc1ccc(-c2nc3cnccc3[nH]2)cc1` had a melting point of 230 °C.

With `CC1(c2nnn[nH]2)CC(Cl)(I)C=CC1N` (centres undefined), the melting point lay in the range of 205 to 208 °C.

In turn, `COC(=O)c1cc(N)c(NC(C)=O)c(Br)c1O` returned a melting point of 217 to 219 °C.

`CCNC(=O)n1nc(Oc2c(Cl)cc(C(F)(F)F)cc2Cl)cc1-c1ccc(Cl)cc1` had a melting point of 88 to 89 °C.

The compound `Clc1nc(SCc2cccc3ccccc23)nc2c1CCN2` displayed a melting point of 107 to 110 °C.

In turn, `CCCCn1c(=O)n(CCCCC(C)=O)c(=O)c2c1ncn2CC(C)=O` had a melting point of 87 °C.

As for `COC(=O)CCC(=O)c1ccc(-c2cccc(F)c2)cc1`, the melting point fell in the range of 99 to 101 °C.

In turn, `COC(=O)c1ccc(NNC(=O)C(C)C)cc1S(N)(=O)=O` registered a melting point of 198 to 200 °C.

For the compound `CC(=O)OC1=C(C(=O)c2ccc(C)cc2)C(c2ccc(OC(F)(F)F)cc2)N(c2ccc(C)nn2)C1=O` (centres undefined), the melting point lay in the range of 165 to 166 °C.

In the case of `CN1C(=O)CCCc2ccc([N+](=O)[O-])cc21`, the melting point is 151 to 152 °C.

`Cc1ccc(NC(=O)N(C)N)cc1NC(=O)N(C)N` displayed a melting point of 164 to 165 °C.

The compound `COC(=O)c1sc2cc(O)ccc2c1C` yielded a melting point of 174 to 176 °C.

Compound `CC(=O)c1ccc(C2COc3c(C)c(C)c(NC(=O)CC(C)(C)C)c(C)c32)cc1` (centres undefined) had a melting point of 181 to 182 °C.

Consider `CCOC(=O)C(=CC=C(O)C(=O)O)Sc1ccc2ccccc2c1`, for which the melting point is 182 °C.

Take `COc1ccc(CN2C(=O)C3CC(c4ccc(N)cc4)(C3)C2=O)cc1`: the melting point was 147 to 148 °C.

Turning to `CCCCOc1c(CNC(=O)OC(C)(C)C)n(CC(C)C)c(=O)c2ccc(-c3nc(C(N)=O)cs3)cc12`, the melting point was 195 to 196 °C.

In turn, `COC(=O)c1cc(NC(=O)c2ccnc(C)c2)c2cc(Cc3ccc(F)cc3)cnc2c1O` showed a melting point of 229 to 230 °C.

For the compound `COCN1C(=O)C(NC(=O)Nc2cccc(C(=O)NS(C)(=O)=O)c2)CN(c2ccccc2)c2ccccc21` (centres undefined), the melting point is 199 to 205 °C.

`C=C(CC(=O)c1ccc(Cl)c(Cl)c1)C(=O)O` registered a melting point of 156 to 157 °C.

`CC(C)(C)CN1C(=O)C2CC(c3ccc(N)cc3)(C2)C1=O` came in with a melting point of 142 to 143 °C.

Turning to `CNC(=O)NS(=O)(=O)c1ccccc1OCCCl`, the melting point is 218 to 222 °C.

On to `Cc1cc(C(N)=O)ccc1N=C1SC[C@H](CC(C)C)N1CC(C)C`, for which the melting point was in the range of 130 to 131 °C.

On to `CCCS(=O)(=O)Cc1ccc(C(=O)Nc2ccc3cc(CN4CCCC4)cnc3c2C)cc1`, for which the melting point worked out at 191 °C.

Compound `Cc1cc(Oc2ccc([N+](=O)[O-])cc2C(F)(F)F)nn1C(=O)NC(C)C` yielded a melting point of 90 to 92 °C.

`CC(C)Nc1cccnc1N1CCN(C(=O)c2ccc(C(=O)O)cc2)CC1`: the melting point fell in the range of 215 to 217 °C.

Compound `CCN(CC)CCC1CCN(C(=O)N2c3ccccc3C(=O)Nc3cccnc32)C1` (centres undefined) showed a melting point of 137 to 138 °C.

Compound `c1ccc(C(Nc2ccncc2)c2ccccc2)cc1` came in with a melting point of 148 to 150 °C.

`CCOC(=O)c1sc(Br)c(Br)c1Cl` yielded a melting point of 58 to 63 °C.

Regarding `CC1(c2ccc(O)cc2)C(=O)Nc2cc(Cl)cc(Cl)c2C1=O` (centres undefined), the melting point is 222 to 223 °C.

`Cc1sc(-c2ccccc2)nc1COc1ccc(CON=C(CCC(=O)O)c2ccccc2)cc1` displayed a melting point of 99 to 100 °C.

For the compound `Cc1nn(-c2cc3nc(S(C)=O)sc3cc2F)c(=O)n1C` (centres undefined), the melting point lay within 199 to 201 °C.

Regarding `CCCCN=C(c1cc(Cl)ccc1O)c1ccccc1Cl`, the melting point is 49.6 °C.

The compound `CCCC=Cc1c(C(C)C)nc(C(C)C)c(C(=O)OCC)c1-c1ccc(C)cc1` had a melting point of 74 to 77 °C.

Compound `CO[C@@H]1[C@@H](OC)[C@H](C)O[C@@H](ON=Cc2ccc(-c3cn(-c4ccc(OC(F)(F)F)cc4)cn3)cc2)[C@@H]1OC` came in with a melting point of 178 °C.

Compound `Nc1cc(Cl)nc(S(=O)Cc2ccc3ccccc3c2)n1` (centres undefined) registered a melting point of 222 to 223 °C.

Compound `COc1ccc(N(Cc2ccc(N(C)C)cc2)C(=O)C2CCCc3c(O)cccc32)cc1` (centres undefined) registered a melting point of 195 to 197 °C.

Consider `COc1ccc(CCNCC(O)c2ccc(OCc3ccccc3)cc2OCc2ccccc2)cc1OC` (centres undefined), for which the melting point was in the range of 116 to 117 °C.

In turn, `COc1ccc(-c2cc(COS(C)(=O)=O)c(=O)n(CC3CCCC3)n2)cc1F` displayed a melting point of 108 to 116 °C.

In turn, `N#Cc1ccsc1S(N)(=O)=O` gave a melting point of 152 to 155 °C.

`Cc1cn(COCCOC(=O)c2ccccc2)c(=O)[nH]c1=O` returned a melting point of 94 to 99 °C.

`Cc1ccc2c(c1)c(=O)c1c(cnn1C)n2-c1cccc(I)c1`: the melting point was 123 °C.

For `COC(=O)Cc1ccccc1N(Cc1ccc(C)cc1)c1c(Cl)cccc1Cl`, the melting point was 113 to 114 °C.

`COc1ccc(CC(=O)c2c(OC)cc(OC)cc2OC)c(OC)c1` came in with a melting point of 109 to 111 °C.

For `Cc1c(-c2ccc3sc(=O)n(C)c3c2)nc2ccccn12`, the melting point lay in the range of 206 to 208 °C.

In the case of `COC1=CC2SC2C2(OC)SC12OC` (centres undefined), the melting point lay in the range of 143 to 144 °C.

Compound `CC(C)COC(=O)N[C@@H](CC(C)C)C(=O)N[C@@H](Cc1ccccc1)C(=O)CSCc1ccco1` returned a melting point of 89 to 90 °C.

For the compound `N#Cc1ccc2c(c1)C(=O)c1cc(N3CCCCC3)ccc1C2=O`, the melting point lay within 274 to 275 °C.

As to `O=[N+]([O-])c1c[nH]nc1-c1ccc(Cl)cc1`, the melting point is 172 to 174 °C.

In turn, `CCCCOC(=O)c1ccc(C(C(N)=O)C(C)c2ccccc2N2CCCCC2)cc1` (centres undefined) came in with a melting point of 148 °C.

As for `COc1cc(SCc2ccccc2)c([N+](=O)[O-])cc1OC`, the melting point lay within 174 to 176 °C.

The compound `O=C(O)[C@@H]1Cc2ccccc2C[C@H]1C(=O)O` (relative stereo) gave a melting point of 229 to 232 °C.

Compound `O=C(NNc1ccc(NC(=S)NCc2ccccc2)cc1)c1ccc(F)cc1` showed a melting point of 186 to 188 °C.

For the compound `CC(=O)Nc1cc(C(C)(C)C)c(Cl)cc1CN(C)C1CCCCC1`, the melting point lay in the range of 174 to 176 °C.

On to `Cc1nc2c(O[C@@H]3c4ccccc4C[C@H]3O)cc(C(=O)NC3CC3)cc2n1C` (relative stereo), for which the melting point fell in the range of 148 to 149 °C.

`O=C(COc1cc(-c2ccccc2)nc2ccc(Cl)cc12)N1CCOCC1` registered a melting point of 182 °C.

For the compound `CCOC(=O)c1ncc2c(c1CBr)c1ccccc1n2C(C)=O`, the melting point is 188 to 189 °C.

Turning to `CN(C)C(=O)Cc1cc(Br)ccc1I`, the melting point was in the range of 127 to 129 °C.

Regarding `O=C(c1ccc2c(c1)OC(F)(F)C(=O)N2)N1CCOCC1`, the melting point was 214 to 217 °C.

Compound `O=C(NC(=O)c1ccccc1F)NC1CN2CCC1CC2` (centres undefined) returned a melting point of 187 to 188 °C.

`CC(O)(c1cccc(C(F)(F)F)c1)c1cc2cccc(-c3cccc(C(=O)NCCO)c3)c2s1` (centres undefined) came in with a melting point of 176 to 177 °C.
